Data as given in patent US12486283B2, “Crystalline salt of eribulin” (priority 2020, dated 2025).
“Also recorded” adds a separate entry of the source. Counter-ions that a name gives are not always drawn.

How the values were obtained:
Type in all cases: physicochemical
[1] = Stability test: properties (appearance) and X-ray powder diffraction analysis after storage; conditions: 40±2° C., 75±5% RH
Protocol: Diffraction patterns were obtained in the range of 3 to 40° 2θ using a X-ray powder diffractometer, and the X-ray powder diffraction analysis conditions were as follows. • Instrument: BrukerA26X1 D2 Phaser • Time per step: 0.5 s • Scanning method: Continuous PSD fast • Detector: Lynxeye (1D mode) (2) Differential Scanning Calorimetry (DSC)
(§1) After 2 weeks and 4 weeks of storage, the occurrence and increase of related substances in each sample were evaluated by high-performance liquid chromatography, and changes were confirmed by X-ray powder diffraction analysis and differential scanning calorimetry to evaluate stability.

[2] = Stability test: purity / related substances by high-performance liquid chromatography after storage; conditions: 75±5% RH; for purity by high-performance liquid chromatography: stored sealed in amber vial at 40±2° C.
Protocol: as §1

[3] = Hygroscopicity test by dynamic vapor adsorption and desorption (DVS); conditions: for hygroscopicity compared with amorphous eribulin mesylate: 25° C. and 80% RH; for stability to moisture compared with amorphous eribulin mesylate: DVS hygroscopicity test; for crystalline form after the hygroscopicity test: after the test was completed
Protocol: Eribulin edisylate obtained in Examples 2, 5, and 7 and the amorphous eribulin mesylate, which is the active component of commercially available Halaven, were subjected to hygroscopicity test by repeating moisture adsorption and desorption once at an interval of 5% RH in an isothermal condition of 25° C. and a relative humidity of 2 to 98% using dynamic vapor adsorption and desorption (DVS) (dynamic vapor adsorption, VTI SGA-100, TA Instruments).

| change in properties ([1]; whole stability test period (4 weeks)) | decrease in purity (increase in related substances) ([2]; 40±2° C., during 4 weeks) | Compound | change in properties ([1]; 2nd week) | change in properties ([1]; 4th week) | solid state over time in the stability test ([1]; over time) | X-ray powder diffraction analysis result (solid form) ([1]; time 0 week) | X-ray powder diffraction analysis result (solid form) ([1]; time 0 week, listed as eribulin mesylate) | X-ray powder diffraction analysis result (solid form) ([1]; time 2 weeks) | X-ray powder diffraction analysis result (solid form) ([1]; time 4 weeks) | purity by high-performance liquid chromatography ([2]; time 0 week) | purity by high-performance liquid chromatography ([2]; time 2 weeks) | purity by high-performance liquid chromatography ([2]; time 4 weeks) | purity by high-performance liquid chromatography ([2]; time 4 weeks, listed as eribulin mesylate) | deliquescence during the hygroscopicity test ([3]; DVS, 25° C., 2 to 98% RH) | stability to heat and humidity compared with eribulin mesylate ([2]; 40±2° C., up to 4 weeks, Ammonium Salt) | hygroscopicity compared with amorphous eribulin mesylate [3] | stability to moisture compared with amorphous eribulin mesylate ([3]; 25° C.) | crystalline form after the hygroscopicity test ([3]; DVS, 25° C., 2 to 98% RH) | Hygroscopicity (EP standard (25° C., 80% RH)) ([3]; DVS, 25° C.) |
| --- | --- | --- | --- | --- | --- | --- | --- | --- | --- | --- | --- | --- | --- | --- | --- | --- | --- | --- | --- |
|  |  | C=C1C[C@@H]2CC[C@@]34C[C@H]5O[C@H]6[C@@H](O3)[C@H]3O[C@H](CC[C@@H]3O[C@H]6[C@H]5O4)CC(=O)C[C@@H]3[C@@H](OC)[C@@H](C[C@H](O)CN)O[C@H]3C[C@H]3O[C@@H](CC[C@@H]1O2)C[C@@H](C)C3=C.CS(=O)(=O)O [Eribulin mesylate] | the solid deliquesced and the color changed to yellow | the deliquescent state was maintained and the color changed from yellow to brown | deliquescence was observed | amorphous | amorphous solid | deliquescence | deliquescence | 99.66% | 88.00% | 7.30% | 7% | deliquescence was observed |  |  |  |  |  |
| No change in properties | ≤ 0.5% | C=C1C[C@@H]2CC[C@@]34C[C@H]5O[C@@H]6C(O[C@H]7CC[C@H](CC(=O)C[C@@H]8[C@@H](OC)[C@@H](C[C@H](O)CN)O[C@H]8C[C@H]8O[C@@H](CC[C@@H]1O2)C[C@@H](C)C8=C)O[C@@H]7[C@@H]6O3)[C@H]5O4 [Example 2, Eribulin Edisylate Ammonium Salt] |  |  |  | crystalline |  | maintain | maintain | 99.73% | 99.50% | 99.35% |  |  | excellent stability to heat and humidity; also recorded: more stable to heat and humidity | lower hygroscopicity | superior stability to moisture | initial crystalline form was maintained | 5.4% |
|  |  | Eribulin Edisylate Cyclohexylamine Salt [Example 5] |  |  |  |  |  |  |  |  |  |  |  |  |  | lower hygroscopicity | superior stability to moisture | initial crystalline form was maintained | 5.2% |
|  |  | Eribulin Edisylate Dicyclohexylamine Salt [Example 7] |  |  |  |  |  |  |  |  |  |  |  |  |  | lower hygroscopicity | superior stability to moisture | initial crystalline form was maintained | 5.6% |
